The experiment addresses human orexin type 2 receptor (hOX2R) (Homo sapiens (Human), UniProt O43614). Nature of the experiment: Measurement of orexin type 2 receptor agonist activity (Experimental Example 2-1, FLIPR TETRA, intracellular Ca2+). The format is cell-based. As to conditions: CHO dhfr- cells expressing hOX2R.
Setting [1] is: agonist activity, 10 nM human orexin B = 100%.
Where [2] appears, read: value at 30 uM concentration, orexin B as full agonist = 100%.
[3] abbreviates: FLIPR TETRA, Fluo-4AM, read-out: Emax (%).

Like-named read-outs stand apart in the source and are kept apart here.

Chain of human orexin type 2 receptor (hOX2R) (O43614 whole entry): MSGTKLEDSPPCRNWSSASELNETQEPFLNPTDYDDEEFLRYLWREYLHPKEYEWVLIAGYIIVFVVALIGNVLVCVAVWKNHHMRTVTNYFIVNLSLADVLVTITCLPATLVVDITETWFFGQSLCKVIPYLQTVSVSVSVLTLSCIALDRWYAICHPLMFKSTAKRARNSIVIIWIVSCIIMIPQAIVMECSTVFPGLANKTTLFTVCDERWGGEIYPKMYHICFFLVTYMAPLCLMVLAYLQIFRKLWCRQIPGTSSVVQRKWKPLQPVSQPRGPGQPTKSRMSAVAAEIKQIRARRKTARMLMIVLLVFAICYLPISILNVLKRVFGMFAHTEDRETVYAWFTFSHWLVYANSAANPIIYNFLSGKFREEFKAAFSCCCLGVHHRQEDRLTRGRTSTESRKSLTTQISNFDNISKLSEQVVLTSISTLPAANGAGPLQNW

In the case of `CC(C)[C@H]1CC[C@@H](OC[C@H]2[C@@H](NS(C)(=O)=O)CCCN2C(=O)CCO)CC1` (relative stereo) [Example 72, N-(cis-1-(3-hydroxypropanoyl)-2-(((cis-4-isopropylcyclohexyl)oxy)methyl)piperidin-3-yl)methanesulfonamide], the EC50 (commonly the concentration giving half of the maximal effect) under setting [1] is 89 nM. In addition, the Emax (usually the size of the effect at its maximum, as opposed to the concentration needed) at 30 µM under setting [2] came out at 96%.

In turn, `CCCS(=O)(=O)N[C@H]1CCCN(C(C)=O)[C@H]1CO[C@H]1CC[C@@H](C(C)C)CC1` (relative stereo) [Example 77, N-(cis-1-acetyl-2-(((cis-4-isopropylcyclohexyl)oxy)methyl)piperidin-3-yl)propane-1-sulfonamide] yielded an EC50 under setting [1] of 1000 nM. Moreover, under setting [2], the Emax at 30 µM came out at 91%.

The compound `CCNC(=O)N1CCC[C@H](NS(C)(=O)=O)[C@@H]1CO[C@H]1CC[C@@H](c2cccc(OC(F)(F)F)c2)CC1` (relative stereo) [Example 300, cis-N-ethyl-3-((methylsulfonyl)amino)-2-(((cis-4-(3-(trifluoromethoxy)phenyl)cyclohexyl)oxy)methyl)piperidine-1-carboxamide] gave an EC50 (FLIPR TETRA, Fluo-4AM) of 9.7 nM. Under setting [3], the Emax turned out to be 94%.

The compound `CC(=O)N(C)CC(=O)N1CCC[C@H](NS(C)(=O)=O)[C@@H]1CO[C@H]1CC[C@@H](c2ccccc2)CC1` (relative stereo) [Example 156, N-methyl-N-(2-(cis-3-((methylsulfonyl)amino)-2-(((cis-4-phenylcyclohexyl)oxy)methyl)piperidin-1-yl)-2-oxoethyl)acetamide] yielded an EC50 (FLIPR TETRA, Fluo-4AM) of 350 nM. Also, the Emax under setting [3] turned out to be 95%.

Under “FLIPR TETRA, Fluo-4AM”, `CCCC(=O)N1CCC[C@H](NS(C)(=O)=O)[C@@H]1COC1CCN(c2ccccc2F)CC1` (relative stereo) [Example 227, N-(cis-1-butyryl-2-(((1-(2-fluorophenyl)piperidin-4-yl)oxy)methyl)piperidin-3-yl)methanesulfonamide] returned an EC50 of 2400 nM. Moreover, the Emax under setting [3] stood at 102%.

In the case of `CS(=O)(=O)N[C@H]1CCCN(C(=O)C2CC2)[C@H]1CO[C@H]1CC[C@@H](c2cccc(OC(F)(F)F)c2)CC1` (relative stereo) [Example 299, N-(cis-1-(cyclopropylcarbonyl)-2-(((cis-4-(3-(trifluoromethoxy)phenyl)cyclohexyl)oxy)methyl)piperidin-3-yl)methanesulfonamide], a half-maximal effect (FLIPR TETRA, Fluo-4AM) (EC50) was put at 95 nM. The Emax under setting [3] was 90%.

Regarding `CCS(=O)(=O)N[C@H]1CCCN(C(C)=O)[C@H]1CO[C@H]1CC[C@@H](C(C)C)CC1` [Example 33, N-((2R,3S)-1-acetyl-2-(((cis-4-isopropylcyclohexyl)oxy)methyl)piperidin-3-yl)ethanesulfonamide], the EC50 under setting [1] came out at 68 nM. In addition, under setting [2], the Emax at 30 µM came to 98%.

As to `CS(=O)(=O)N[C@H]1CCCN(C(=O)[C@@H]2CCC(=O)O2)[C@H]1CO[C@H]1CC[C@@H](c2ccccc2)CC1` [Example 184, N-((2R,3S)-1-(((2S)-5-oxotetrahydrofuran-2-yl)carbonyl)-2-(((cis-4-phenylcyclohexyl)oxy)methyl)piperidin-3-yl)methanesulfonamide], the EC50 (FLIPR TETRA, Fluo-4AM) came out at 9.3 nM. The Emax under setting [3] came out at 93%.

Regarding `CC(OC(=O)N1CCC[C@H](NS(=O)(=O)N(C)C)[C@@H]1COC1CCN(c2ncccn2)CC1)C(F)(F)F` (relative stereo) [Example 316, 1,1,1-trifluoropropan-2-yl cis-3-((dimethylsulfamoyl)amino)-2-(((1-(pyrimidin-2-yl)piperidin-4-yl)oxy)methyl)piperidine-1-carboxylate], under “FLIPR TETRA, Fluo-4AM”, the response was half-maximal at 330 nM (EC50). In addition, under setting [3], the Emax turned out to be 91%.

Under setting [1], `CC(=O)N1CCC[C@H](NS(C)(=O)=O)[C@@H]1CO[C@H]1CC[C@@H](c2ccc(F)cc2)CC1` (relative stereo) [Example 112, N-(cis-1-acetyl-2-(((cis-4-(4-fluorophenyl)cyclohexyl)oxy)methyl)piperidin-3-yl)methanesulfonamide] had an EC50 of 420 nM. Under setting [2], the Emax at 30 µM turned out to be 94%.

With `CC(C)[C@H]1CC[C@@H](OC[C@H]2[C@@H](NS(C)(=O)=O)CCCN2C(=O)Oc2ccccc2)CC1` (relative stereo) [Example 43, phenyl cis-2-(((cis-4-isopropylcyclohexyl)oxy)methyl)-3-((methylsulfonyl)amino)piperidine-1-carboxylate], the EC50 under setting [1] was determined as 1100 nM. Under setting [2], the Emax at 30 µM was found to be 93%.

In turn, “N-(2-(((cis-4-(3-fluorophenyl)cyclohexyl)oxy)methyl)pyridin-3-yl)methanesulfonamide [Example 15]” gave an EC50 under setting [1] of 280 nM. Also, the Emax under setting [2] is 105%.

Consider `COC(=O)N1CCC[C@H](NS(C)(=O)=O)[C@@H]1CO[C@H]1CC[C@@H](c2cccc(OC)c2)CC1` (relative stereo) [Example 270, methyl cis-2-(((cis-4-(3-methoxyphenyl)cyclohexyl)oxy)methyl)-3-((methylsulfonyl)amino)piperidine-1-carboxylate], for which the EC50 (FLIPR TETRA, Fluo-4AM) worked out at 80 nM. For the same compound, the Emax under setting [3] was found to be 102%.

Regarding `CS(=O)(=O)N[C@H]1CCCN[C@H]1CO[C@H]1CC[C@@H](c2cccc(F)c2F)CC1` [Example 18, N-((2R,3S)-2-(((cis-4-(2,3-difluorophenyl)cyclohexyl)oxy)methyl)piperidin-3-yl)methanesulfonamide], under setting [1], a half-maximal effect (EC50) was put at 520 nM. In addition, the Emax at 30 µM under setting [2] came out at 96%.

Where the note is “FLIPR TETRA, Fluo-4AM”, `COC(=O)N1CCC[C@H](NS(C)(=O)=O)[C@@H]1CO[C@H]1CC[C@@H](c2ccccc2C#N)CC1` (relative stereo) [Example 265, methyl cis-2-(((cis-4-(2-cyanophenyl)cyclohexyl)oxy)methyl)-3-((methylsulfonyl)amino)piperidine-1-carboxylate] had an EC50 of 2300 nM. Moreover, under setting [3], the maximum response (Emax) was 94%.

In the case of `CS(=O)(=O)N[C@H]1CCCN(C(=O)OCC(F)(F)F)[C@H]1COC1CCN(c2ncccn2)CC1` (relative stereo) [Example 286, 2,2,2-trifluoroethyl cis-3-((methylsulfonyl)amino)-2-(((1-(pyrimidin-2-yl)piperidin-4-yl)oxy)methyl)piperidine-1-carboxylate], the EC50 (FLIPR TETRA, Fluo-4AM) was 130 nM. Further, the Emax under setting [3] was 93%.

As for `CC(=O)N1CCC[C@H](NS(C)(=O)=O)[C@@H]1CO[C@H]1CC[C@@H](c2ccccc2OC(F)(F)F)CC1` (relative stereo) [Example 293, N-(cis-1-acetyl-2-(((cis-4-(2-(trifluoromethoxy)phenyl)cyclohexyl)oxy)methyl)piperidin-3-yl)methanesulfonamide], the EC50 (FLIPR TETRA, Fluo-4AM) turned out to be 540 nM. Also, the Emax under setting [3] was 78%.

`CS(=O)(=O)N[C@H]1CCCN(C(=O)C2CC2)[C@H]1COC1CCN(c2ncccn2)CC1(F)F` (relative stereo) [Example 211, N-(cis-1-(cyclopropylcarbonyl)-2-(((3,3-difluoro-1-(pyrimidin-2-yl)piperidin-4-yl)oxy)methyl)piperidin-3-yl)methanesulfonamide] yielded an EC50 (FLIPR TETRA, Fluo-4AM) of 1100 nM. Moreover, the Emax under setting [3] is 94%.

Take `CCNC(=O)N1CCC[C@H](NS(C)(=O)=O)[C@@H]1CO[C@H]1CO[C@@H](c2ccccc2)OC1` (relative stereo) [Example 140, cis-N-ethyl-3-((methylsulfonyl)amino)-2-(((cis-2-phenyl-1,3-dioxan-5-yl)oxy)methyl)piperidine-1-carboxamide]: the EC50 (FLIPR TETRA, Fluo-4AM) came to 390 nM. Further, the Emax under setting [3] worked out at 92%.

`COC(=O)N1CCC[C@H](NS(C)(=O)=O)[C@@H]1CO[C@H]1CC[C@@H](c2ccn(C)n2)CC1` (relative stereo) [Example 154, methyl cis-2-(((cis-4-(1-methyl-1H-pyrazol-3-yl)cyclohexyl)oxy)methyl)-3-((methylsulfonyl)amino)piperidine-1-carboxylate] displayed an EC50 (FLIPR TETRA, Fluo-4AM) of 2400 nM. The Emax under setting [3] was determined as 94%.

Regarding `[2H]C1C([2H])[C@]([2H])(C(C)C)C([2H])C([2H])[C@]1([2H])OC[C@H]1[C@@H](NS(C)(=O)=O)CCCN1C(C)=O` (stereo partly drawn) [Example 103, N-(cis-1-acetyl-2-(((cis-4-isopropyl(1,2,3,4,5,6-d6)cyclohexyl)oxy)methyl)piperidin-3-yl)methanesulfonamide], the EC50 under setting [1] was found to be 170 nM. Under setting [2], this compound gave an Emax at 30 µM of 98%.

The compound `CC(=O)N1CCC[C@H](NS(C)(=O)=O)[C@@H]1CO[C@H]1CC[C@@H](C)CC1` (relative stereo) [Example 128, N-(cis-1-acetyl-2-(((cis-4-methylcyclohexyl)oxy)methyl)piperidin-3-yl)methanesulfonamide] had an EC50 (FLIPR TETRA, Fluo-4AM) of 2400 nM. The Emax under setting [3] was found to be 88%.

For `CC(=O)N1CCC[C@H](NS(C)(=O)=O)[C@@H]1CO[C@H]1CC[C@@H](C(C)(C)F)CC1` (relative stereo) [Example 95, N-(cis-1-acetyl-2-(((cis-4-(2-fluoropropan-2-yl)cyclohexyl)oxy)methyl)piperidin-3-yl)methanesulfonamide], a half-maximal effect under setting [1] (EC50) was put at 4300 nM. The compound also returned an Emax at 30 µM under setting [2] of 89%.

Under setting [1], `COC(=O)CCC(=O)N1CCC[C@H](NS(C)(=O)=O)[C@@H]1CO[C@H]1CC[C@@H](C(C)C)CC1` (relative stereo) [Example 55, methyl 4-(cis-2-(((cis-4-isopropylcyclohexyl)oxy)methyl)-3-((methylsulfonyl)amino)piperidin-1-yl)-4-oxobutanoate] showed an EC50 of 140 nM. The compound further displayed an Emax at 30 µM under setting [2] of 97%.

`CC1(OC(=O)N2CCC[C@H](NS(C)(=O)=O)[C@@H]2COC2CCN(c3ncccn3)CC2)CC1` (relative stereo) [Example 284, 1-methylcyclopropyl cis-3-((methylsulfonyl)amino)-2-(((1-(pyrimidin-2-yl)piperidin-4-yl)oxy)methyl)piperidine-1-carboxylate] showed an EC50 (FLIPR TETRA, Fluo-4AM) of 260 nM. Also, under setting [3], the Emax worked out at 95%.

Under setting [1], `COc1ccccc1[C@H]1CC[C@@H](OC[C@@H]2NCCC[C@@H]2NS(C)(=O)=O)CC1` [Example 27, N-((2R,3S)-2-(((cis-4-(2-methoxyphenyl)cyclohexyl)oxy)methyl)piperidin-3-yl)methanesulfonamide] registered an EC50 of 310 nM. For the same compound, under setting [2], the Emax at 30 µM stood at 108%.

The values are drawn from patent publication US10287305B2, “Substituted piperidine compound and use thereof” (Takeda Pharmaceutical Company Limited, priority 2016, dated 2019).
